Measurements published in patent US20220135539A1, “BIARYL AMIDE COMPOUNDS, PREPARATION METHODS AND MEDICAL APPLICATIONS THEREOF” (Eternity Bioscience Inc., priority 2020, published 2022).

How the values were obtained:
human recombinant cRAF = human recombinant cRAF (Homo sapiens, UniProt P04049); assay: cRAF Inhibition Assay (TR-FRET); assay type: biochemical
Method: (§1) Activity of human recombinant cRAF were assessed in vitro using time-resolved fluorescence resonance energy transfer (TR-FRET) assay. The assay was performed according to the kit instructions. Briefly, the cRAF enzyme (BPS Bioscience, cat #40008) was diluted to 0.027 ng/μL using the 1× kinase buffer A (Life Tech, cat #PV6135, 5× dilution with H2O); the Fluorescein labeled-MAP2K1 (Life Tech, Cat #PV4812) was diluted to 0.5 μM; ATP (Life Tech, cat #PV3227) was diluted to 20 μM; 2.54, of each diluted reagent was added to a 384-well plate (PerkinElmer, ProxiPlate-384 Plus, 6008280) and mixed together; 2.54, serial diluted compound were added into the mixture. 104, 400-fold diluted LanthaScreen Tb-pMAP2K1 (pSer217/221) antibody (Life Tech, cat #PV4817) was then added to each kinase reaction. The reactions were incubated at Room Temperature for 1 hour. The plate was then read on PHERAstar FSX using 340/490/520 module. Inhibition data were calculated by comparison to vehicle control wells for 0% inhibition and non-stimulated control wells for 100% inhibition. Dose response curves were then generated to determine the concentration required to suppress 50% of enzymatic response (IC50) as derived by non-linear regression analysis using GraphPad Prism.

human recombinant BRAF = target: T1, human recombinant BRAF (Homo sapiens, UniProt P15056); assay: BRAF^WT Inhibition Assay (TR-FRET); assay type: biochemical
T1 construct: purchased BPS Bioscience 40065
Method: as §1, with “BRAF” for “cRAF”, “#40065)” for “#40008)”

[1] = target: T2, human recombinant V600E mutant BRAF (Homo sapiens, UniProt P15056, V600E); assay: BRAF^V600E Inhibition Assay (TR-FRET); assay type: biochemical
T2 construct: purchased BPS Bioscience 40533
Method: Activity of human recombinant V600E mutant BRAF were assessed in vitro using time-resolved fluorescence resonance energy transfer (TR-FRET) assay. The assay was performed according to the kit instructions. Briefly, the V600E mutant BRAF enzyme (BPS Bioscience, cat #40533) was diluted to 0.027 ng/μL using the 1× kinase buffer A (Life Tech, cat #PV6135, 5× dilution with H2O); the Fluorescein labeled-MAP2K1 (Life Tech, Cat #PV4812) was diluted to 0.5 μM; ATP (Life Tech, cat #PV3227) was diluted to 20 μM; 2.5 μl of each diluted reagent was added to a 384-well (PerkinElmer, ProxiPlate-384 Plus, 6008280) plate and mixed together; 2.54, serial diluted compounds were added into the mixture. 104, 400-fold diluted LanthaScreen Tb-pMAP2K1 (pSer217/221) antibody (Life Tech, cat #PV4817) was then added to each kinase reaction. The reactions were incubated at Room Temperature for 1 hour. The plate was then read on PHERAstar FSX using 340/490/520 module. Inhibition data were calculated by comparison to vehicle control wells for 0% inhibition and non-stimulated control wells for 100% inhibition. Dose response curves were then generated to determine the concentration required to suppress 50% of enzymatic response (IC50) as derived by non-linear regression analysis using GraphPad Prism.

[2] = test system: NCI-H358 (KRAS^G12C) non-small cell lung cancer cell; assay: NCI-H358 Cancer Cell Growth Inhibition Assay (CellTiter-Glo); assay type: cell-based, human; conditions: for GI50: Homo sapiens, 72 h, NCI-H358 cells, incubated for 3 days, CellTiter-Glo
Method: Activity of human NCI-H358 (KRAS^G12C) non-small cell lung cancer cell growth inhibition was assessed in vitro using CellTiter-Glo® Luminescent Cell Viability Assay. The assay was performed according to the kit instructions (Promega, cat #G7570). Briefly, NCI-H358 cells (ATCC, #CRL-5807) were seeded in 96-well plates at a density of 2,500 cells/well in and cells were cultured overnight in a humidified, 5% CO2 cell culture incubator at 37° C. 10 μL serial diluted compounds were added into each cell-culture well and incubated for 3 days. 100 μL CellTiter-Glo® Reagent was added into each well. The reactions were incubated at Room Temperature for 10 minutes, and luminescence signals were recorded on a Tecan Luminescence Plate Reader. Inhibition data were calculated by comparison to vehicle control wells for 0% inhibition and non-stimulated control wells for 100% inhibition. Dose response curves were then generated to determine the concentration required to suppress 50% of cellular growth response (GI50) as derived by non-linear regression analysis using GraphPad Prism.

[3] = test system: A375 (BRAF^V600E) malignant melanoma cell; assay: A375 Cell Growth Inhibition Assay (CellTiter-Glo); assay type: cell-based, human; conditions: for GI50: Homo sapiens, A-375, 72 h, A375 cells, incubated for 3 days, CellTiter-Glo
Method: Activity of human A375 (BRAF^V600E) malignant melanoma cell growth inhibition was assessed in vitro using CellTiter-Glo® Luminescent Cell Viability Assay. The assay was performed according to the kit instructions (Promega, cat #G7570). Briefly, A375 cells (ATCC, #CRL-1619™) were seeded in 96-well plates at a density of 2,500 cells/well in 90 and cells were cultured overnight in a humidified, 5% CO2 cell culture incubator at 37° C. 10 μL serial diluted compounds were added into each cell-culture well and incubated for 3 days. […] Reagent was added into each well. The reactions were incubated at Room Temperature for 10 minutes, and luminescence signals were recorded on a Tecan Luminescence Plate Reader. Inhibition data were calculated by comparison to vehicle control wells for 0% inhibition and non-stimulated control wells for 100% inhibition. Dose response curves were then generated to determine the concentration required to suppress 50% of cellular growth response (GI50) as derived by non-linear regression analysis using GraphPad Prism.

[4] = test system: Calu6 (KRAS^Q16K) cancer cell; assay: Calu6 Cancer Cell Growth Inhibition Assay (CellTiter-Glo); assay type: cell-based, human; conditions: for GI50: Homo sapiens, Calu-6, 72 h, Calu6 cells, incubated for 3 days, CellTiter-Glo
Method: Activity of human Calu6 (KRAS^Q16K) cancer cell growth inhibition was assessed in vitro using CellTiter-Glo® Luminescent Cell Viability Assay. The assay was performed according to the kit instructions (Promega, cat #G7570). Briefly, Calu6 cells (ATCC, #HTB-56™) were seeded in 96-well plates at a density of 2,500 cells/well in 90 and cells were cultured overnight in a humidified, 5% CO2 cell culture incubator at 37° C. 10 μL serial diluted compounds were added into each cell-culture well and incubated for 3 days. 100 μL CellTiter-Glo® Reagent was added into each well. The reactions were incubated at Room Temperature for 10 minutes, and luminescence signals were recorded on a Tecan Luminescence Plate Reader. Inhibition data were calculated by comparison to vehicle control wells for 0% inhibition and non-stimulated control wells for 100% inhibition. Dose response curves were then generated to determine the concentration required to suppress 50% of cellular growth response (GI50) as derived by non-linear regression analysis using GraphPad Prism.

RAF Kinase = conditions: background statement on the reference compound; cited from earlier work

Sequence of human recombinant cRAF (P04049 whole entry Y340D/Y341D, form open): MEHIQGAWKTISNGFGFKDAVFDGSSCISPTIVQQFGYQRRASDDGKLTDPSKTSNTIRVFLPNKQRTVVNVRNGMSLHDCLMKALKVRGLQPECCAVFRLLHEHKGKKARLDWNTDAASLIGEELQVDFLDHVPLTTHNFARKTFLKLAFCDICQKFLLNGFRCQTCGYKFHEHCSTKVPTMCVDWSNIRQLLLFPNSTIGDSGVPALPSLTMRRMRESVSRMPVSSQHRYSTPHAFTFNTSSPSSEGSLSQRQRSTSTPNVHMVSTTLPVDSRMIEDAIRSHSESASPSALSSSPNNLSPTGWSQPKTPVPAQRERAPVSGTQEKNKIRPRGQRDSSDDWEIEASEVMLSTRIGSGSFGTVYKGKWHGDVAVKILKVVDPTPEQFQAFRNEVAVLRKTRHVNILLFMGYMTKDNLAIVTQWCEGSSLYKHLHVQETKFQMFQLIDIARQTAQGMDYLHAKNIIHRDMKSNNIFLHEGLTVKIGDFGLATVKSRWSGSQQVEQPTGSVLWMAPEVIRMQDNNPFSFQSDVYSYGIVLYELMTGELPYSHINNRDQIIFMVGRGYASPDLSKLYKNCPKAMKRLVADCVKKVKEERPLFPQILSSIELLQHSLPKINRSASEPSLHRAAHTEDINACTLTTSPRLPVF
T1 sequence (P15056 whole entry): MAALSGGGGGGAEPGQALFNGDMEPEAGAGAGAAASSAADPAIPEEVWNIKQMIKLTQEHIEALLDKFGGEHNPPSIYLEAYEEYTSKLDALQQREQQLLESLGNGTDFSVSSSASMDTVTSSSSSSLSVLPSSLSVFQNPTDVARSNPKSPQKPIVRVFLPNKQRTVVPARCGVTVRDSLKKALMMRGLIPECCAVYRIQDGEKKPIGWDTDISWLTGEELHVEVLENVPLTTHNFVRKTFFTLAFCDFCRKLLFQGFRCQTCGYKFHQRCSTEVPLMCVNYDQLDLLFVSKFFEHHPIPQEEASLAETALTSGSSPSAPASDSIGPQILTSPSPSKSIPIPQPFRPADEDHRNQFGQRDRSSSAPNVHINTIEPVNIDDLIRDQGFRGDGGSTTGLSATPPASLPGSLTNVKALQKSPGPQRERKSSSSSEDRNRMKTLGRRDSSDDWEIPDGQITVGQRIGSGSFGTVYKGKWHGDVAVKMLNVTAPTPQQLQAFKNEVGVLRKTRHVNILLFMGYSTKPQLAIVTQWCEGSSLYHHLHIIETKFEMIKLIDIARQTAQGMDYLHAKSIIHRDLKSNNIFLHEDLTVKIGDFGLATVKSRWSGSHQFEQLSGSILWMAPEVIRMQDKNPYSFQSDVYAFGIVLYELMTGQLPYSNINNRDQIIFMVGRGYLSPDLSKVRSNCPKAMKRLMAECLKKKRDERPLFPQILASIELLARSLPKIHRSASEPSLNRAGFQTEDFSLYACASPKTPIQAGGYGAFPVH
T2 sequence (P15056 whole entry V600E): as the sequence (P15056 whole entry) above, with V600E counted along it

| SMILES | IC50 (human recombinant cRAF) [nM] | IC50 (human recombinant BRAF) [nM] | IC50 [1] [nM] | GI50 [2] [nM] | GI50 [3] [nM] | GI50 [4] [nM] | potency for bRAF and cRAF (RAF Kinase) | cellular potency, H358 ([2]; H358 cancer cell line) | cell growth inhibition in H358 cancer line compared to LXH254 ([2]; H358 cancer line, compared to LXH254) | cellular potency, A375 ([3]; A375 cancer cell line) | cellular potency, Calu6 ([4]; Calu6 cancer cell line) |
| --- | --- | --- | --- | --- | --- | --- | --- | --- | --- | --- | --- |
| Cc1ccc(NC(=O)c2ccnc(C(F)(F)F)c2)cc1-c1cc(OCCO)nc(N2CCOCC2)c1 [LXH254, reference compound] | 13 | 38 | 43 | 3000 | 890 | 920 | nanomolar potency |  |  |  |  |
| Cc1ccc(NC(=O)c2ccc3c(c2)OC(F)(F)O3)cc1-c1cc(OCCO)nc(N2CCOCC2)c1 [Example 1, 2,2-difluoro-N-(3-(2-(2-hydroxyethoxy)-6-morpholinopyridin-4-yl)-4-methylphenyl)benzo[d][1,3]dioxole-5-carboxamide] | 15 | 87 | 32.5 | 480 | 150 | 64 |  | excellent cellular potency | better or similar cell growth inhibition | excellent cellular potency | excellent cellular potency |
